This note sets out measurements from paper PMC11574021, “CEP192 localises mitotic Aurora-A activity by priming its interaction with TPX2” (The EMBO Journal, 2024).

Test [1] concerns LATS2-pS83 in RPE1 p53-/- cells. The test is described as follows: Immunofluorescence, LATS2-pS83 spindle pole signal intensity, RPE1 p53-/-. The format is cell-based, Homo sapiens. The settings on record: Aurora-A inhibitor 30 min (500 nM). As for the experimental part: As noted in the figures, the following drugs were incubated with cells for 30 min at 37 °C: Aurora-B-i ZM447439 2 µM [10 mM], PLK1-I BI2536 1 µM [10 mM] and Aurora-A-i MLN8237 [5 mM] was used at 250 and 500 nM in U251 and RPE1 cells, respectively. Drugs were resuspended in DMSO to the stock concentrations indicated in square brackets. BI2536 (HY-50698), MLN8237 (HY-10971) and ZM447439 (HY-10128) were all purchased from MedChemExpress. For western blotting, a 20-min pre-treatment with proteasome inhibitor (20 µM MG-132, MerckMillipore, 47490 [20 mM]) was required prior to the addition of DMSO control or kinase inhibitors. This prevented mitotic exit as a consequence of checkpoint override following Aurora-A and Aurora-B inhibitor addition.
For siRNA depletion, 1 × 10^5 cells were seeded in six-well plates and transfected as described above for 48 h prior to fixation. For all other experiments, 2.5 × 10^5 cells were seeded in six-well plates and grown for 24 h before fixation. All cells were grown on 12 mm diameter glass coverslips (VWR, 631–1577). […]
For CEP192, LATS2-pS83, PCNT, PLK1 and γ-tubulin intensity, a 20-pixel diameter circle was centred over each centrosome and the intensity measured. […]

In test [2] the test system is Aurora-A in U251 and RPE1 cells. The test is described as follows: Western blot, total Aurora-A protein level. The format is cell-based, Homo sapiens. The settings on record: mitotic U251 and RPE1 lysates, siRNA 48 h. The procedure: Cells were lysed on ice for 30 min in lysis buffer (50 mM tris pH 8.0, 300 mM NaCl, 0.2%(v/v) NP-40, 10%(v/v) glycerol, protease inhibitor cocktail C, phosphatase inhibitor cocktail 3 (Sigma, 1:200 dilution), 100 nM okadaic acid (Enzo, ALX-350-003-C100)). Lysates were then centrifuged at 14,000 × g, 15 min, 4 °C, the supernatants were transferred to a fresh tube, and the pellet was discarded. Protein concentrations were measured by Bradford assay using Protein Assay Dye Reagent Concentrate (Bio-Rad Laboratories, 5000006). NuPage LDS sample buffer, supplemented with NuPAGE sample reducing agent (Invitrogen) were added prior to boiling for 10 min at 90 °C. Equal amounts of protein, between 8–20 µg/lane, were loaded into pre-cast 4–12% Bis-Tris gels (Invitrogen, NP0322BOX) and proteins separated in 1x MOPS buffer (Invitrogen) and transferred to nitrocellulose membrane (0.45 µM). Nitrocellulose was then blocked in 5% milk (wt/v) in TBS, 0.1% Tween (v/v) (TBST) for 1 h. Primary and secondary antibodies were diluted in 5% milk, TBST and incubated overnight at 4 °C or for 1 h at room temperature, respectively. Species-specific secondary antibodies conjugated to horseradish peroxidase (HRP) were used (anti-Mouse, Cytiva NA931V; anti-Rabbit, Cytiva NA934; anti-Sheep, Jackson 713-035-003). Membranes were washed for 1 h in TBST, changing the buffer five times, after each antibody incubation. […]

`COc1cc(Nc2ncc3c(n2)-c2ccc(Cl)cc2C(c2c(F)cccc2OC)=NC3)ccc1C(=O)O` [Alisertib]: the “reduction of pS83 LATS2 levels” value was 50% in test [1] and “about 50%” in test [1] (listed as Aurora-A inhibition).
5′-CGGUAGUGAUAAAAGCUCAtt-3′ [siTPX2]: the “total Aurora-A protein levels” value in test [2] was “decreased total Aurora-A protein levels”.
